Target: T1, Neutrophil elastase enzyme (HNE) (Homo sapiens, UniProt P08246)
T1 sequence (P08246 30-267): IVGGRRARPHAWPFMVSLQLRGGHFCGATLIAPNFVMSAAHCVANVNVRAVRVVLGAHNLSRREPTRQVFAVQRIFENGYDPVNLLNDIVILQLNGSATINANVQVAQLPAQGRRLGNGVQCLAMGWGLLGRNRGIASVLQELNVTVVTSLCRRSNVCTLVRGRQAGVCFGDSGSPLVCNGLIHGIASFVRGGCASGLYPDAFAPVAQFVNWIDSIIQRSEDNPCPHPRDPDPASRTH
Test: Neutrophil elastase inhibitor activity
Assay type: biochemical
Settings: read-out: Degree of HNE inhibition (Mean)

| SMILES | inhibition at 0.1 µM [%] | inhibition at 1 µM [%] | inhibition at 10 µM [%] | inhibition at 50 µM [%] | inhibition at 100 µM [%] |
| --- | --- | --- | --- | --- | --- |
| NC(=S)NNC(=O)CC1C(=O)c2ccccc2C1=O [IDC2, 2-(2-(1,3-Dioxo-2,3-dihydro-1H-inden-2-yl)acetyl)hydrazine-1-carbothioamide] | 16.3 | 18.9 | 21.5 | 24.8 | 28.8 |
| O=C(CC1C(=O)c2ccccc2C1=O)NNC(=S)N=Cc1cccc([N+](=O)[O-])c1 [IDC7, 2-(2-(1,3-Dioxo-2,3-dihydro-1H-inden-2-yl)acetyl)-N-(3-nitrobenzylidene)hydrazine-1-carbothioamide] | 12 | 16.7 | 24.6 | 25.8 | 26.7 |
| NNC(=O)CC1C(=O)c2ccccc2C1=O [IDH1, 2-(1,3-Dioxo-2,3-dihydro-1H-inden-2-yl)acetohydrazide] | 18.6 | 21.6 | 28.7 | 30.1 | 36.5 |
| CC(C)(C)C(=O)Oc1ccc(S(=O)(=O)Nc2ccccc2C(=O)NCC(=O)O)cc1 [Sivelestat, reference compound] | 96.2 | 98.5 | 98.6 | 98.5 | 99.8 |

Source: publication PMC10107027 (RSC Advances, 2023)
